Numbers after ± are expanded uncertainties.
Key:
[1] = wn = mass fraction of the nth substance listed; details: 101.33 kPa, Liquid; for speed of sound: Pulse-echo method; for mass density: Vibrating tube method
[2] = 298.15 K; 101.33 kPa; Liquid; Vibrating tube method

CCN1CCCC1=O [1-ethyl-2-pyrrolidinone] + O
[1]
Details | mass density, w2 = 0.7 [kg/m3] | mass density, w2 = 0.8 [kg/m3] | mass density, w2 = 0.9 [kg/m3] | speed of sound, w2 = 0.7 [m/s] | speed of sound, w2 = 0.8 [m/s] | speed of sound, w2 = 0.9 [m/s] | viscosity, w2 = 0.7 [mPa·s] | viscosity, w2 = 0.8 [mPa·s] | viscosity, w2 = 0.9 [mPa·s]
293.15 K | 1013.82 ± 0.58 | 1007.67 ± 0.57 | 1002.08 ± 0.57 | 1671.7 ± 2.6 | 1620 ± 2.6 | 1555.7 ± 2.5 | 2.857 ± 0.065 | 2.068 ± 0.048 | 1.474 ± 0.035
303.15 K | 1008.12 ± 0.58 | 1003.22 ± 0.57 | 998.33 ± 0.57 | 1658.9 ± 2.6 | 1620 ± 2.6 | 1568.9 ± 2.5 | 2.03 ± 0.05 | 1.52 ± 0.04 | 1.123 ± 0.027
313.15 K | 1001.9 ± 0.58 | 998.11 ± 0.57 | 994.6 ± 0.57 | 1644 ± 2.6 | 1616.3 ± 2.6 | 1576.8 ± 2.5 | 1.522 ± 0.036 | 1.176 ± 0.029 | 0.891 ± 0.022
323.15 K | 995.12 ± 0.58 | 992.41 ± 0.57 | 989.74 ± 0.57 | 1627.1 ± 2.6 | 1608.9 ± 2.6 | 1580.3 ± 2.5 | 1.196 ± 0.029 | 0.942 ± 0.024 | 0.73 ± 0.02

NCCO [2-aminoethan-1-ol]
Details | mass density [kg/m3]
[2] | 1011.98 ± 0.46

CCN1CCCC1=O [1-ethyl-2-pyrrolidinone] + NCCO
[1]
Details | mass density, w2 = 0.7 [kg/m3] | mass density, w2 = 0.8 [kg/m3] | mass density, w2 = 0.9 [kg/m3] | speed of sound, w2 = 0.7 [m/s] | speed of sound, w2 = 0.8 [m/s] | speed of sound, w2 = 0.9 [m/s] | viscosity, w2 = 0.7 [mPa·s] | viscosity, w2 = 0.8 [mPa·s] | viscosity, w2 = 0.9 [mPa·s]
293.15 K | 1009.04 ± 0.66 | 1011.7 ± 0.64 | 1014.01 ± 0.63 | 1653.3 ± 2.6 | 1679.7 ± 2.6 | 1706.9 ± 2.7 | 12.25 ± 0.24 | 16.01 ± 0.3 | 19.95 ± 0.36
303.15 K | 1000.7 ± 0.66 | 1003.49 ± 0.64 | 1005.95 ± 0.62 | 1618.6 ± 2.6 | 1645.9 ± 2.6 | 1674 ± 2.7 | 8.104 ± 0.17 | 10.27 ± 0.2 | 12.48 ± 0.23
313.15 K | 992.31 ± 0.66 | 995.23 ± 0.63 | 997.83 ± 0.62 | 1584 ± 2.6 | 1611.7 ± 2.6 | 1641.2 ± 2.7 | 5.666 ± 0.12 | 6.967 ± 0.14 | 8.35 ± 0.17
323.15 K | 983.87 ± 0.65 | 986.93 ± 0.63 | 989.65 ± 0.61 | 1549.5 ± 2.6 | 1578.2 ± 2.6 | 1608 ± 2.7 | 4.173 ± 0.095 | 5.017 ± 0.11 | 5.863 ± 0.13

— the NIST ThermoML archive (doi:10.1021/je4005883)
